As a reminder, the ΔTm is the change in melting temperature against a reference sample. By IC50 is commonly meant the concentration that inhibits the measured activity by half.

Test [1] relates to F21T (DNA, G4) GGGCTAGGGCTAGGGCTAGGG
The test can be described thus: FRET melting. The settings on record: 100 mM K+; 10 mM Tris-HCl, pH 7.35; 2.0 μM compound, 1.0 μM DNA.

Test [2] concerns c-kit-1. On the set-up: method as in earlier work. The settings on record: ref [1], cited from earlier work; for ctDNADC50/c-kit-1DC50: FID selectivity ratio; for c-kit-1DC50: FID.
The next test concerns Hep-G2 cells. On the set-up: method as in earlier work. Particulars: Hep-G2, 48 h; ref [1]; cited from earlier work.
The test system of test [3] is Pu27 (DNA, G4) TGGGGAGGGTGGGGAGGGTGGGGAAGG
Kind of test: fluorescent intercalator displacement (FID). Particulars: thiazole orange displaced.

For test [4], the system named is c-kit-1. Kind of test: FID assay. It counts as binding. Particulars: for c-kit-1DC50: FID; for ctDNADC50/c-kit-1DC50: FID selectivity ratio.
For the next test, the system named is BEL-7404 cells. Kind of test: Cell cycle analysis (PI flow cytometry). The class given is cell-based, human. Particulars: BEL-7404, 10 μM, 48 h; untreated 24.76%. Here is the method:
Platinum(II)-based drugs were widely used in anticancer chemotherapies, therefore, we performed experiments to test the potency of chiral platinum(II) complexes 4–6 for inducing senescence and apoptosis in BEL-7404 cells. […] We next investigated the effect of complexes 4–6 on the induction of apoptosis. BEL-7404 cells were incubated with complexes 4 (10 and 20 μM), 5 (10 and 20 μM) and 6 (5, 10 and 20 μM) for 24 h, respectively, and then these cells staining with PI and Annexin-V-FITC were determined by flow cytometry (Figure 3A and Supplementary Figure 18). As shown in Figure 3A and Supplementary Figure 18, after treated of complexes 4–6 with 10 μM for 24 h, the percentage of apoptotic cells (including early-stage and late-stage, Q2+Q4) was 13.1%, 7.0% and 25.4%, respectively, whereas the normal cells was only 6.1%. We further investigated the ability of complexes 4–6 (5, 10 and 20 μM) to induce BEL-7404 cell cycle arrest (Figure 3B and Supplementary Figure 19). Cells were treated with complexes 4–6 at 10 μM for 48 h, the cell cycle arrest was determined by using flow cytometry. […]
Apoptosis analysis c-myc antibody, or anti-β-actin primary antibody and the Apoptosis was detected by flow cytometric analysis corresponding secondary antibody were used to detect of annexin V staining. […] Then, cells were incubated with annexin V-FITC and PI for 1.0 h at Staining for SA-β-Gal activity was carried out room temperature in the dark and immediately analyzed according to Moore and Chen reports. […] The data are presented as biparametric After the long-term incubation with complexes 4–6, the dot plots showing PI red fluorescence vs annexin V-FITC growth medium was aspirated and the BEL-7404 cells green fluorescence. were fixed in 2% formaldehyde/0.2% glutaraldehyde for 15.0 min at room temperature. […] Finally, the extraction, RT-PCR, and the selective binding to G4s by BEL-7404 cell cycle was determined with FACS Calibur complexes 4–6 was according to the our previous reported flow cytometer (BD) and analyzed using Cell Quest. […]

Another test has as its system Pu27 (c-myc) G4. The test can be described thus: FID assay. The class given is binding. The settings on record: for Pu27DC50: FID; for ctDNADC50/Pu27DC50: FID selectivity ratio. Here is the method:
(§1) We asked whether chiral platinum(II) complexes 4–6 have the ability to bind to G-quadruplex DNA. To address this, FRET assays, CD spectroscopy, G4-FID assays, and fluorescence titration analysis were performed. […] For G4-HTG21, the ^G4DC50 values of complexes 4–6 were 1.23, 1.26 and 0.99 μM, respectively; while, for G4-Pu27, the ^G4DC50 values were 1.01, 0.89, and 0.82 μM, respectively. In addition, the ^ctDNADC50/^G4DC50 ratio of the HTG21 and Pu27 G4s treated with complexes 4–6 was in the range of 50.54-90.65 and 71.56-110.67 folds, respectively. To further evaluate the binding ability of complexes 4–6 to Pu27 and HTG21G4s, CD spectroscopy and fluorescence titration analysis were performed. […] The quenching ability of complexes 4–6 to HTG21 and Pu27 G4 DNA fluorescence can be quantitatively estimated by their respective quenching constant (Kq), which was derived from the Stern-Volmer quenching equation. […] Finally, the selective binding of complexes 4–6 towards G4 DNA was analyzed by FRET-melting assays. […] In contrast, the ΔTm value for the F32T+H20M duplex DNA in the presence of complexes 4–6 was 1.18, 1.34, and 0.78 °C under the same conditions (Figure 4A). Altogether, our data indicated complexes 4–6, especially complex 6, is the best binder to G4 DNA, which caused DNA complex displaying the highest thermodynamic stability. […]
(§2) Supplementary Figure 20: FID results onto 4 (A), 5 (B) and 6 (C) toward DNA in sodium cacodylate buffer solution. […]

For test [5], the system named is HTG21 (human telomeric) G4. The test can be described thus: FID assay. It counts as binding. Particulars: for HTG21DC50: FID; for ctDNADC50/HTG21DC50: FID selectivity ratio. Here is the method:
as §1, §2

Another test concerns ctDNA. The test can be described thus: FID assay. The class given is binding. Particulars: for ctDNADC50: FID; for ctDNADC50/ctDNADC50: FID selectivity ratio. The method, then: as §1, §2

Where two headings read alike, the source gives them in different places.

As to `O=C(NCC(O)CO)c1cnc2c3c(cccc13)-c1ccccc1C2=O.[Cl-].[Cl-].[Pt+2]` (racemic) [ligand 1, R/S-(±)-FOA], the ΔTm in [1] came out at 13.19 °C. Further, in the test with c-kit-1 [2], the ctDNADC50/c-kit-1DC50 is given as 0.96 and the c-kit-1DC50 is 66.35 µM. Further, the 50% inhibitory concentration (IC50) with Hep-G2 cells was 32.9 ± 0.5 µM. The G4DC50 in test [3] amounted to 1.01 µM.
On to `O=C(NC[C@@H](O)CO)c1cnc2c3c(cccc13)-c1ccccc1C2=O.[Cl-].[Cl-].[Pt+2]` [ligand 2, R-(+)-FOA], for which the ΔTm in test [1] worked out at 12.95 °C. In addition, in the test with c-kit-1 [2], the ctDNADC50/c-kit-1DC50 is given as less than 0.40 and the c-kit-1DC50 is greater than 100 µM. In the test on Hep-G2 cells, the IC50 was 38.9 ± 1.3 µM. For the same molecule, in test [3], the G4DC50 came to 0.89 µM.
Consider `O=C(NC[C@H](O)CO)c1cnc2c3c(cccc13)-c1ccccc1C2=O.[Cl-].[Cl-].[Pt+2]` [ligand 3, S-(–)-FOA], for which the thermal shift (ΔTm) in test [1] came out at 20.07 °C. Moreover, in the test with c-kit-1 [2], the ctDNADC50/c-kit-1DC50 is given as 36.66 and the c-kit-1DC50 is 2.45 µM. For the same molecule, in the test on Hep-G2 cells, the IC50 was 24.9 ± 0.4 µM. In addition, in test [3], the G4DC50 came out at 0.82 µM.
As to cis-[PtCl2(R-(+)-FOA)] [complex 5], in the test on c-kit-1 [4], the c-kit-1DC50 is 23.89 µM and the ctDNADC50/c-kit-1DC50 is 2.67. Moreover, in the test with BEL-7404 cells, the “percentage of cells at S phase” value is recorded as 32.33%. Besides, in the test on Pu27 (c-myc) G4, the Pu27DC50 was found to be 0.89 µM and the ctDNADC50/Pu27DC50 stood at 71.56. For the same molecule, in test [5], the HTG21DC50 amounted to 1.26 µM and the ctDNADC50/HTG21DC50 came to 50.54. Further, in the test on ctDNA, the ctDNADC50 was 63.69 µM and the ctDNADC50/ctDNADC50 was determined as 1.00.
For the molecule cis-[PtCl2(R/S-(±)-FOA)] [complex 4], in the test with c-kit-1 [4], the c-kit-1DC50 worked out at 1.45 µM and the ctDNADC50/c-kit-1DC50 is 52.32. Also, the “percentage of cells at S phase” value in the test with BEL-7404 cells was 37.59%. In the test with Pu27 (c-myc) G4, the Pu27DC50 stood at 1.01 µM and the ctDNADC50/Pu27DC50 was determined as 75.11. In addition, in [5], the HTG21DC50 was 1.23 µM and the ctDNADC50/HTG21DC50 is given as 61.68. Also, in the test with ctDNA, the ctDNADC50 stood at 75.87 µM and the ctDNADC50/ctDNADC50 came to 1.00.
cis-[PtCl2(S-(–)-FOA)] [complex 6]: in the test with c-kit-1 [4], the c-kit-1DC50 worked out at 1.75 µM and the ctDNADC50/c-kit-1DC50 came out at 51.85. Moreover, the “percentage of cells at S phase” value with BEL-7404 cells was determined as 38.61%. Further, in the test with Pu27 (c-myc) G4, the Pu27DC50 turned out to be 0.82 µM and the ctDNADC50/Pu27DC50 was determined as 110.67. For the same molecule, the HTG21DC50 in test [5] was found to be 0.99 µM. Moreover, in the test with ctDNA, the ctDNADC50 stood at 90.73 µM and the ctDNADC50/ctDNADC50 amounted to 1.00.

Source of the values: article PMC5617480 (Oncotarget, 2017).
